The test system of one data set is HS01 cells. Nature of the data set: Incucyte live cell imaging, confluence and cleaved caspase 3/7. The settings on record: HS01, 72h time course. The data set is classed as cell-based, human. How it is done:
Human HS11, HS01, HS02, HS13 and HS05 and mouse MTC-10 cells (1,000 cells/well) were seeded in growth medium in three replicate wells/condition of a 384-well CellBIND Corning plate. […] Wells were imaged using the Incucyte® S5 Live-Cell Analysis system (Sartorius) for 24–72h. Phase and green fluorescent images were collected every 2h and analyzed using the integrated basic analyzer software.

Data set [1] concerns MS01-Luc allografts (mouse MD-SCs). In words: Immunohistochemistry of allograft tumors. The data set is classed as in vivo, NSG mice. The settings on record: tumors after 14 days of treatment, n = 4/group.
The next data set deals with HS01 cells (human MD-SC). In words: Cell viability (CellTiter-Fluor) and Combenefit synergy, 10x10 matrix. In kind it is cell-based. The settings on record: HS01 72h, read-out: % Control cell viability. How it is done: (§1) Drugs used in this study are listed with their targets in Table S1. All drugs were obtained from SelleckChem (Houston, TX, USA), apart from (−)-B-Hydrastine (Santa Cruz Biotechnology, Dallas, TX, USA). Drugs were dissolved in DMSO (10 mM stock). MD-SCs were seeded in 384-well CellBind Corning plates at 1000 cells/well in phenol red-free media. After attachment, cells were treated with drugs at 10 concentrations in a 10×10 matrix. Mouse cells were treated for 48h and human cells for 72h prior to assessment of cell viability with CellTiter-Fluor Assay (Promega, Madison, WI, USA). All drugs were tested in at least two human MD-SC lines. Follow up testing was performed on a subset of combinations using the mouse MD-SC line. Matrix combination data was uploaded into the Combenefit software system to assess drug synergy using three methods (Loewe, Bliss, and HSA)([18]).

For the next data set, the system named is MS01 cells (mouse MD-SC). The description is as above. The conditions noted are these: MS01 48h, read-out: % Control cell viability. The data set is classed as cell-based. As to the method:
as §1

A further data set has as its system HS03 cells (human MD-SC). The description is as above. The settings on record: HS03 72h, read-out: % Control cell viability. In kind it is cell-based. How it is done: as §1
A short description of data set [2]: Pharmacokinetic study, plasma and sciatic nerve after single oral gavage. In kind it is in vivo, NSG mice. The source says: The UCF animal facility is accredited by the Association for Assessment and Accreditation of Laboratory Animal Care. A total of 50 six- to eight-week-old mice were used for pharmacokinetic studies. […] Drugs were delivered via 0.5% methylcellulose, 0.2% Tween 80, 10% DMSO vehicle. Ten mice (three per drug and one control receiving vehicle alone) were used at each time point. Collected samples were frozen and sent to Cyprotex (Watertown, MA, USA) for LC-MS/MS quantitation of drug levels. Pharmacokinetic calculations were performed using the PKSolver software. The plasma half-life (t½) was calculated as the time required to reduce by half the plasma concentration after reaching pseudo-equilibrium and is not the time required to eliminate half the administered dose. An additional LC-MS/MS analyses of a subset of the treated mice (see below) was conducted. […] Three mice from each treatment group were selected randomly at the end of the in vivo study to assess the levels of drug in plasma, intact control nerve, and tumor. Samples were collected 4h after the final oral gavage, frozen, and sent to Cyprotex for analysis.

A short description of data set [3]: Drug levels in plasma, control nerve and tumor at end of in vivo study. The settings on record: 4h after final oral gavage, 14 days of daily treatment. Further details: species or system NSG mice. The text has this:
Male and female NOD.Cg-Prkdcscid Il2rgtm1Wjl/SzJ (NSG) mice were bred in house and all care and use was approved by the University of Central Florida (UCF) Institutional Animal Care and Usage Committee (IACUC; #19 – 05, approved 04/08/2019). The UCF animal facility is accredited by the Association for Assessment and Accreditation of Laboratory Animal Care. A total of 50 six- to eight-week-old mice were used for pharmacokinetic studies. […] Drugs were delivered via 0.5% methylcellulose, 0.2% Tween 80, 10% DMSO vehicle. Ten mice (three per drug and one control receiving vehicle alone) were used at each time point. Collected samples were frozen and sent to Cyprotex (Watertown, MA, USA) for LC-MS/MS quantitation of drug levels. Pharmacokinetic calculations were performed using the PKSolver software. The plasma half-life (t½) was calculated as the time required to reduce by half the plasma concentration after reaching pseudo-equilibrium and is not the time required to eliminate half the administered dose. An additional LC-MS/MS analyses of a subset of the treated mice (see below) was conducted. This was done to determine whether PF-3758309 was accessible to the tumor neo-vasculature that can differ from that of the organ/tissue housing the tumor. […]

For the next data set, the system named is human MD-SCs. In words: Cell viability of MD-SC lines, monotherapy EC50 and combination synergy. The data set is classed as cell-based. As to the method: as §1

The structures appear in SMILES notation.

As for `COc1ccc(-c2nc(N3CCOCC3)c3sc(CN(C)c4ncc(C(=O)NO)cn4)cc3n2)cn1` [CUDC907], the “cleaved caspase 3/7 (CC3/7) signal” value with HS01 cells is “high CC-3/7 signal starting at 14h”.
Turning to `Cc1nc(Nc2n[nH]c3c2CN(C(=O)N[C@H](CN(C)C)c2ccccc2)C3(C)C)c2sccc2n1` [PF-3758309], the “Ki67 staining (cell proliferation)” value in data set [1] was “significantly decreased cell proliferation”. For the same molecule, the YAP staining reduction entry in data set [1] was “statistically significant”. The viability at 0.03906 µM with HS01 cells (human MD-SC) (single drug 39.06 nM) is 71%; with MS01 cells (mouse MD-SC) (single drug 39.06 nM), 61%; with HS03 cells (human MD-SC) (single drug 39.06 nM) it was 72%. Further, the viability at 0.07813 µM turned out to be 66% in the data set on HS01 cells (human MD-SC) (single drug 78.13 nM), 57% in the data set with MS01 cells (mouse MD-SC) (single drug 78.13 nM) and 67% in the data set on HS03 cells (human MD-SC) (single drug 78.13 nM). Also, the viability at 0.15625 µM in the data set on HS01 cells (human MD-SC) (single drug 156.25 nM) amounted to 67%; in the data set with MS01 cells (mouse MD-SC) (single drug 156.25 nM), 50%; in the data set on HS03 cells (human MD-SC) (single drug 156.25 nM), 63%. Moreover, the viability at 0.3125 µM in the data set on HS01 cells (human MD-SC) (single drug 312.5 nM) came out at 65%; in the data set with MS01 cells (mouse MD-SC) (single drug 312.5 nM), 48%; in the data set with HS03 cells (human MD-SC) (single drug 312.5 nM), 64%. For the same molecule, the viability at 0.625 µM in the data set with HS01 cells (human MD-SC) (single drug 625 nM) was 65%; in the data set on MS01 cells (mouse MD-SC) (single drug 625 nM), 43%; in the data set on HS03 cells (human MD-SC) (single drug 625 nM), 62%. The viability at 1.25 µM was 67% with HS01 cells (human MD-SC) (single drug 1250 nM), 40% with MS01 cells (mouse MD-SC) (single drug 1250 nM) and 59% in the data set with HS03 cells (human MD-SC) (single drug 1250 nM). Besides, the viability at 2.5 µM in the data set with HS01 cells (human MD-SC) (single drug 2500 nM) was determined as 59%; with MS01 cells (mouse MD-SC) (single drug 2500 nM) it was 35%; in the data set on HS03 cells (human MD-SC) (single drug 2500 nM) it was 56%. Besides, the results for the viability at 5 µM in the data set with HS01 cells (human MD-SC) (single drug 5000 nM), with MS01 cells (mouse MD-SC) (single drug 5000 nM) and in the data set with HS03 cells (human MD-SC) (single drug 5000 nM) were 40%, 24% and 44%, respectively. Further, the viability at 10 µM with HS01 cells (human MD-SC) (single drug 10000 nM) came to 21%; in the data set with MS01 cells (mouse MD-SC) (single drug 10000 nM), 7%; with HS03 cells (human MD-SC) (single drug 10000 nM), 23%. Also, the “half-life in plasma, together with pictilisib versus alone” value in data set [2] (PF-3758309 25 mg/kg oral) is “similar”. Further, the “maximum concentration in plasma” value in data set [2] (PF-3758309 25 mg/kg oral, alone) is 110 ng/mL; in data set [2] (PF-3758309 25 mg/kg oral, co-administered with pictilisib 75 mg/kg), 341 ng/mL. Also, the Tmax in data set [2] (both sexes, NOD.Cg-Prkdcscid Il2rgtm1Wjl/SzJ (NSG), mouse, plasma, po, read-out: time of maximum plasma concentration) came to 2 h. The “detection in normal nerve” value in data set [2] (co-administered with pictilisib) is on record as “remained undetected in normal nerve”. In data set [2] (single agent, single oral gavage), the “penetration of blood-nerve barrier / detection in intact nerve” value is “not detected in the intact nerve”. Besides, the drug in tumor entry in data set [3] is listed as “bioavailable in the tumor”.
In the case of `COc1ncc(-c2ccc3nccc(-c4ccnnc4)c3c2)cc1NS(=O)(=O)c1ccc(F)cc1F` [omipalisib], the EC50 in the data set with human MD-SCs was found to be 2 nM.

Values taken from PMC10602174, “Simultaneous Inhibition of PI3K and PAK in Preclinical Models of Neurofibromatosis Type 2-related Schwannomatosis” (Research Square, 2023).
